{
  "source": "patent US9474282B2",
  "about": "“Acid-solubilized copper-ammonium complexes and copper-zinc-ammonium complexes, compositions, preparations, methods, and uses” (priority 2013, dated 2016)",
  "key": {"[1]": {"tested_on": "Candida albicans strains 1-1, 3-1 and 4-1", "assay": "Anti-fungal/yeast microplate assay (MIC, resazurin)", "format": "cell-based", "procedure": "(§1) The three strains of Candida albicans (C. albicans) used: 1-1, 3-1 and 4-1 were isolated from human blood, vagina and oropharynx, respectively. Cryptococcus neoformans (C. neoformans) strain CCTP13 was used. All strains were cultured in RPMI-1640 medium at 37° C. The copper sulfate and Cu# compositions started at a high concentration of 200 micrograms/milliliter, whilst the Cu—Zn# compositions started at a high concentrations of 1% of the stock solution (Table 2) and zinc sulfate and phosphorous acid started with a high concentrations equivalent to those in Cu—Zn#7 and #10 (see the legend of Table 1 for details) doubling dilutions (100 microliters) of the compositions were prepared in RPMI-1640 in a 96-well tissue culture plate. Overnight C. albicans and C. neoformans cultures were diluted 1:40 and 1:10 respectively with fresh RPMI containing 40 mM MOPS buffer and 90 microliters was added to the compositions in the plate. Resazurin A (10 microliters of a 0.0675% wt/vol solution in distilled water) was added as an indicator of growth, and the cultures were incubated at 37° C. for 24 hr. The minimum inhibitory concentration (MIC) of the compounds/compositions was defined as the lowest concentration at which the resazurin A indicator remained blue (living cells convert the blue dye to a pink color)."}, "[2]": {"assay": "pH of stock solutions and gel formulation", "format": "physicochemical", "details": "stock solution"}, "[3]": {"tested_on": "Klebsiella pneumonia (K. pneumoniae)", "assay": "Bacterial microplate cultures (MIC)", "format": "cell-based", "details": "RPMI-1640, 24 hours", "procedure": "(§2) The aerobic bacterial strains Acinetobacter baumannii (A. baumannii), methicillin-resistant Staphylococcus aureus (MRSA) and Klebsiella pneumonia (K. pneumoniae) were isolated from swabs taken in a hospital ward. Escherichia coli (NCTC 9001; E. coli) is a clinical isolate from a patient's urinary bladder; all strains were cultured in RPMI-1640. Stock solutions of the compounds/compositions to be tested were diluted so that double dilutions in the microplate assays commenced at a 1% vol/vol concentration. Double dilutions of the compositions to be tested were prepared in RPMI-1640 in a 96-well tissue culture plate. The bacterial cultures were diluted 1:40 with fresh RPMI and added to the compositions. P. acnes was cultured as described in EXAMPLE 1 (Agar plate test methods) and a sample was diluted 1:100 with fresh BHI. Double dilutions of the compositions to be tested were prepared as described above in distilled water in a 96-well tissue culture plate (100 microliters) and 100 microliters of the diluted P. acnes culture was added. The plates were then incubated at 37° C. for 24 hours (under anaerobic conditions for P. acnes). The minimum inhibitory concentration (MIC) of the compositions was defined as the lowest concentration at which no visible bacterial growth was observed."}, "[4]": {"tested_on": "Escherichia coli (NCTC 9001; E. coli)", "assay": "Bacterial microplate cultures (MIC)", "format": "cell-based", "details": "RPMI-1640, 24 hours", "procedure": "as §2"}, "[5]": {"tested_on": "Acinetobacter baumannii (A. baumannii)", "assay": "Bacterial microplate cultures (MIC)", "format": "cell-based", "details": "RPMI-1640, 24 hours", "procedure": "as §2"}, "[6]": {"tested_on": "methicillin-resistant Staphylococcus aureus (MRSA)", "assay": "Bacterial microplate cultures (MIC)", "format": "cell-based", "details": "RPMI-1640, 24 hours", "procedure": "as §2"}, "[7]": {"tested_on": "Propionibacterium acnes strain ATCC 11828 (P. acnes)", "assay": "Agar plate test for antibacterial effect, zone of inhibition", "format": "cell-based", "details": "stock diluted 1:200 in distilled water (200 microgram/milliliter elemental copper for Cu# and copper sulfate), BHI agar, 24 hours anaerobic", "procedure": "(§3) A 0.2 milliliter sample of the P. acnes culture was spread onto a 9 centimeter Petri dish containing BHI agar and allowed to dry.\n(§4) The composition to be tested was either diluted with distilled water and 5 microliters was placed onto a 5 millimeter filter paper disc or was added to the Aloe vera-based gel (without preservatives) described above at various concentrations and a 5 microliter drop was placed onto the agar surface. The plates were then incubated at 37° C. for 24 hours (under anaerobic conditions for P. acnes), when the zones of inhibition (ZoI) were measured in millimeters) twice at a […] angle using a ruler and the average diameter (D) was calculated. The area of inhibition in mm^2 (AoI) was calculated using the formula: AoI=π×(D/2)^2."}, "[8]": {"tested_on": "Cryptococcus neoformans strain CCTP13", "assay": "Anti-fungal/yeast microplate assay (MIC, resazurin)", "format": "cell-based", "details": "C. neoformans", "procedure": "as §1"}, "[9]": {"tested_on": "P. acnes", "assay": "Bacterial microplate cultures (MIC)", "format": "cell-based, Propionibacterium acnes", "procedure": "as §2"}, "[10]": {"tested_on": "Aspergillus niger (A. niger)", "assay": "Anti-fungal assay with plant pathogenic fungi on PDA", "format": "cell-based", "procedure": "(§5) Chalara […] isolate 196/28 ([…]), Aspergillus niger (A. niger) and a strain isolated from powdery mildew (Pm; isolated from an apple leaf) were cultured on potato dextrose agar (PDA) at room temperature (around 22° C.). […] The plate was agitated to evenly distribute the test composition evenly through the agar (distilled water alone was used as control) and then the agar was allowed to set. […] To assess the effects of compositions on fungal growth, the diameter of the fungal hyphae was measured twice at a 90° angle using a ruler and the average diameter in millimeters was calculated. If no fungal growth could be detected by eye, the cultures were observed by phase microscopy (40×) to confirm that there was no growth (NG) as judged by visual examination."}, "[11]": {"tested_on": "Chalara fraxinea isolate 196/28 (C. fraxinea)", "assay": "Anti-fungal assay with plant pathogenic fungi on PDA", "format": "cell-based", "procedure": "as §5"}, "[12]": {"tested_on": "Staphylococcus aureus strain (S1)", "assay": "Agar plate test for antibacterial effect, area of inhibition", "format": "cell-based", "procedure": "as §3, §4"}, "[13]": {"tested_on": "strain isolated from powdery mildew (Pm)", "assay": "Anti-fungal assay with plant pathogenic fungi on PDA", "format": "cell-based, powdery mildew (isolated from an apple leaf)", "details": "3 days of culture", "procedure": "as §5"}, "[14]": {"tested_on": "A-431", "assay": "Cytotoxicity assay with a human squamous epithelial skin cell line (SRB assay)", "details": "confluent A-431, 24 hours, SRB (FIG. 4)", "method": "A-431 (ATCC) was cultured in RPMI-1640 medium supplemented with 10% fetal bovine serum and 2 mM L-glutamine (complete medium) in a humidified incubator at 37′C with a 5% CO2 in air atmosphere. For cytotoxicity experiments the cells were trypsinized, washed, counted and 2×10^4 cells were plated into the wells of flat-bottom 96-well plates in complete medium and cultured for 3 days until a confluent monolayer was formed. […] All test products were diluted in complete medium and then added in triplicate to the confluent A-431 cells which were then cultured for a further 24 hours when cytotoxicity/cell survival was quantitatively assessed using the sulforhodamine B (SRB) assay as described below.\nThe cells were washed twice with RPMI-1640 medium and then fixed with 10% trichloroacetic acid for 1 hour at 4° C. After washing twice with tap water, the cells were stained with SRB (0.4% w/v SRB in 1% acetic acid) for 30 min at room temperature. After washing twice with tap water the remaining stain was dissolved in 10 mM Tris base and the absorbance of the wells was measured on a Dynatech Multiplate ELISA reader at 540 nm. Percent cell survival was calculated by dividing the test product absorbance by control absorbance and multiplying by 100."}, "[15]": {"details": "C. albicans strain 1-1, copper-free controls, concentration of zinc sulfate or phosphorous acid"}, "[16]": {"details": "C. albicans strain 3-1, copper-free controls, concentration of zinc sulfate or phosphorous acid"}, "[17]": {"details": "C. albicans strain 4-1, copper-free controls, concentration of zinc sulfate or phosphorous acid"}, "[18]": {"details": "Experiment #1, 24 hours anaerobic"}},
  "note": "Marks after values point to notes of the source that are not given here.",
  "data": [
    {"smiles": "OP(O)O", "note": "[Composition H3PO3, phosphorous acid]", "values": [
      {"measurement": "MIC", "setting": "[1]; [15]", "value": ">500", "unit": "µg/mL"},
      {"measurement": "MIC", "setting": "[1]; [16]", "value": ">500", "unit": "µg/mL"},
      {"measurement": "MIC", "setting": "[1]; [17]", "value": ">500", "unit": "µg/mL"},
      {"measurement": "MIC", "setting": "[1]; C. albicans strains", "value": "> 500", "unit": "micrograms/milliliter"}
    ]},
    {"smiles": "O=S(=O)([O-])[O-].[Cu+2]", "note": "[Copper sulfate, copper sulfate]", "values": [
      {"measurement": "pH of stock solutions", "setting": "[2]", "value": 3.4},
      {"measurement": "MIC", "setting": "[3]", "value": 50, "unit": "microgram/milliliter"},
      {"measurement": "MIC", "setting": "[4]", "value": 100, "unit": "microgram/milliliter"},
      {"measurement": "MIC", "setting": "[5]", "value": 6.3, "unit": "microgram/milliliter"},
      {"measurement": "MIC", "setting": "[6]", "value": 12.5, "unit": "microgram/milliliter"},
      {"measurement": "Zone of Inhibition (mm)", "setting": "[7]", "value": 13, "unit": "mm"},
      {"measurement": "MIC (μg/ml Cu^2+)", "setting": "[1]; C. albicans strain 1-1, 24 hr", "value": 6.3, "unit": "μg/ml Cu^2+"},
      {"measurement": "MIC (μg/ml Cu^2+)", "setting": "[1]; C. albicans strain 3-1, 24 hr", "value": 6.3, "unit": "μg/ml Cu^2+"},
      {"measurement": "MIC (μg/ml Cu^2+)", "setting": "[1]; C. albicans strain 4-1, 24 hr", "value": 6.3, "unit": "μg/ml Cu^2+"},
      {"measurement": "MIC (μg/ml Cu^2+)", "setting": "[8]; 24 hr", "value": 6.3, "unit": "μg/ml Cu^2+"},
      {"measurement": "MIC", "setting": "[9]; [18]", "value": 100, "unit": "µg/mL"},
      {"measurement": "MIC", "setting": "[9]; Experiment #2, 24 hours anaerobic", "value": 200, "unit": "µg/mL"},
      {"measurement": "Diameter of fungal growth (mm)", "setting": "[10]; 12.5 μg/ml, Day 4", "value": 15, "unit": "mm"},
      {"measurement": "Diameter of fungal growth (mm)", "setting": "[10]; 12.5 μg/ml, Day 7", "value": 17, "unit": "mm"},
      {"measurement": "Diameter of fungal growth (mm)", "setting": "[10]; 12.5 μg/ml, Day 11", "value": 18, "unit": "mm"},
      {"measurement": "Diameter of fungal growth (mm)", "setting": "[10]; 37.5 μg/ml, Day 4", "value": 13, "unit": "mm"},
      {"measurement": "Diameter of fungal growth (mm)", "setting": "[10]; 37.5 μg/ml, Day 7", "value": 16, "unit": "mm"},
      {"measurement": "Diameter of fungal growth (mm)", "setting": "[10]; 37.5 μg/ml, Day 11", "value": 18, "unit": "mm"},
      {"measurement": "Diameter of fungal growth (mm)", "setting": "[10]; 125 μg/ml, Day 4, NG = no growth by phase microscopy", "value": 7, "unit": "mm"},
      {"measurement": "Diameter of fungal growth (mm)", "setting": "[10]; 125 μg/ml, Day 7, NG = no growth", "value": 10, "unit": "mm"},
      {"measurement": "Diameter of fungal growth (mm)", "setting": "[10]; 125 μg/ml, Day 11, NG = no growth", "value": 15, "unit": "mm"},
      {"measurement": "Diameter of fungal growth (mm)", "setting": "[11]; 3.75 μg/ml, Day 7", "value": 14, "unit": "mm"},
      {"measurement": "Diameter of fungal growth (mm)", "setting": "[11]; 3.75 μg/ml, Day 15", "value": 20, "unit": "mm"},
      {"measurement": "Diameter of fungal growth (mm)", "setting": "[11]; 12.5 μg/ml, Day 7", "value": 14, "unit": "mm"},
      {"measurement": "Diameter of fungal growth (mm)", "setting": "[11]; 12.5 μg/ml, Day 15", "value": 20, "unit": "mm"},
      {"measurement": "Diameter of fungal growth (mm)", "setting": "[11]; 37.5 μg/ml, Day 7", "value": 13, "unit": "mm"},
      {"measurement": "Diameter of fungal growth (mm)", "setting": "[11]; 37.5 μg/ml, Day 15, 20 mm = confluent", "value": "20** mm"},
      {"measurement": "Diameter of fungal growth (mm)", "setting": "[11]; 125 μg/ml, Day 7", "value": 10, "unit": "mm"},
      {"measurement": "Diameter of fungal growth (mm)", "setting": "[11]; 125 μg/ml, Day 15", "value": 18, "unit": "mm"},
      {"measurement": "Area of inhibition (AoI)", "setting": "[12]; dissolved in gel, 800 micrograms/milliliter, TSA, 24 hours (FIG. 1)", "value": 28, "unit": "mm^2"},
      {"measurement": "Diameter of fungal growth (mm)", "setting": "[13]; 12.5 μg/ml", "value": 17, "unit": "mm"},
      {"measurement": "Diameter of fungal growth (mm)", "setting": "[13]; 37.5 μg/ml", "value": 17, "unit": "mm"},
      {"measurement": "Diameter of fungal growth (mm)", "setting": "[13]; 125 μg/ml", "value": 13, "unit": "mm"},
      {"measurement": "Diameter of fungal growth (mm)", "setting": "[13]; 375 μg/ml, NG = no growth", "value": "3* mm"},
      {"measurement": "50% cytotoxic concentrations (CC50)", "setting": "[14]", "value": 50, "unit": "micrograms/milliliter"}
    ]},
    {"smiles": "O=S(=O)([O-])[O-].[Zn+2]", "note": "[Zinc sulfate, zinc sulfate]", "values": [
      {"measurement": "MIC", "setting": "[1]; [15]", "value": ">150", "unit": "µg/mL"},
      {"measurement": "MIC", "setting": "[1]; [16]", "value": ">150", "unit": "µg/mL"},
      {"measurement": "MIC", "setting": "[1]; [17]", "value": ">150", "unit": "µg/mL"},
      {"measurement": "MIC", "setting": "[1]; C. albicans strains", "value": "> 150", "unit": "micrograms/milliliter"},
      {"measurement": "MIC", "setting": "[8]; copper-free control, concentration of zinc sulfate", "value": ">150", "unit": "µg/mL"},
      {"measurement": "MIC", "setting": "[9]; [18]", "value": 25, "unit": "µg/mL"},
      {"measurement": "MIC", "setting": "[9]; Table 5 experiment, varying Cu:Zn ratios", "value": 50, "unit": "µg/mL"},
      {"measurement": "effect on the growth of S1 (S. aureus)", "setting": "[12]; alone in gel, 50-200 micrograms/milliliter (FIG. 2)", "value": "no effect"},
      {"measurement": "effect on the growth of S1 (S. aureus)", "setting": "[12]; in gel, 100 micrograms/milliliter (FIG. 3)", "value": "no effect"}
    ]}
  ]
}
